The values below come from US8168667B2 (Galapagos NV, priority 2006, dated 2012).

SMILES strings stand for the structures. Read-outs that look alike come from different tables or passages of the source.

For the experiment, the target named is T1, human androgen receptor (hAR) (Homo sapiens, UniProt P10275).
T1 sequence (P10275 1-920): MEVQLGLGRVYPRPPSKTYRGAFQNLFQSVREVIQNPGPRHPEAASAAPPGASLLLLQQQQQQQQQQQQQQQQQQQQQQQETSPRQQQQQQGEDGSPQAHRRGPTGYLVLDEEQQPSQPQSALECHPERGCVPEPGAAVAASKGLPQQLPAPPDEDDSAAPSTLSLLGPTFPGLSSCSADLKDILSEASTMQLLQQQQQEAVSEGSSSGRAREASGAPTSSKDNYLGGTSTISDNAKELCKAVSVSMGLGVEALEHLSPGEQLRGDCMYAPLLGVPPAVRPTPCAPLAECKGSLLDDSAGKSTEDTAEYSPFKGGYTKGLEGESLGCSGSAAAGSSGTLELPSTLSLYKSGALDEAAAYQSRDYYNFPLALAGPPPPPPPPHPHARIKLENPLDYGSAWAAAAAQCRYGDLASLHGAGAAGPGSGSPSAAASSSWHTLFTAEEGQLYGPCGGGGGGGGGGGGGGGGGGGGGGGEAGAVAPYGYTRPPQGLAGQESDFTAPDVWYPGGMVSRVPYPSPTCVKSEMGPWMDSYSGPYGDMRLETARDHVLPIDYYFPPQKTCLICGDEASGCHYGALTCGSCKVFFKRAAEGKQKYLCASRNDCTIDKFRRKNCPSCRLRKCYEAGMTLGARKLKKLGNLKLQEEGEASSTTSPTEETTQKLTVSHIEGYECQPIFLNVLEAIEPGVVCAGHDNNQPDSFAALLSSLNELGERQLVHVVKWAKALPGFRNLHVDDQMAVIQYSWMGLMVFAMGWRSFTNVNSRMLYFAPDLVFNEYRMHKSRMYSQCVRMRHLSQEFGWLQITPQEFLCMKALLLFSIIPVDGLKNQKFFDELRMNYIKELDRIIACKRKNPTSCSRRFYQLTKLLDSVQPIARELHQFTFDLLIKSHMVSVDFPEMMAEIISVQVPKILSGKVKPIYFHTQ
Briefly: Functional response test: hAR transactivation (luciferase reporter) in HALP2 cells. Type of experiment: cell-based. As to conditions: for EC50: agonism, HALP2 cells (HeLa, hAR + ARE-luciferase), 20 hours at 37° C. The gist of the method:
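HALP2 cells are HeLa cells stably transfected with CMV-driven hAR and a probasin ARE-luciferase reporter. They were seeded 24 h ahead, then exposed to compounds for 20 hours at 37° C in phenol red-free DMEM with 5% desteroided serum. Luciferase luminescence was measured after lysis; for antagonist mode, compounds were tested against increasing DHT concentrations.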

The mark [1] stands for this setting: antagonism, concentration which increases the EC50 of the DHT by a factor of 2, Schild regression, HALP2 cells.

Turning to `CC1(c2ccc(O)cc2)C(=O)N(c2ccc(Cl)c(Cl)c2)C(=O)N1CCCCO` (stereo not shown) [Example 22, 1-(3,4-dichlorophenyl)-3-(4-hydroxybutyl)-4-(4-hydroxyphenyl)-4-methylimidazolidine-2,5-dione], the concentration for a half-maximal effect (EC50) was found to be 15 nM. The “KSchild (nM) potency” value under setting [1] amounted to 15 nM.

In the case of `O=C1C(c2ccc(O)cc2)N(CCCCO)C(=O)N1c1cccc(C(F)(F)F)c1` (stereo not shown) [Example 136], the EC50 amounted to 600 nM. In addition, the “KSchild (nM) potency” value under setting [1] is 600 nM.

On to `CCOCCCN1C(=O)N(c2ccc([N+](=O)[O-])c(C(F)(F)F)c2)C(=O)C1c1ccc(O)cc1` (stereo not shown) [Example 83], for which the “KSchild (nM) potency” value came out at 565.69 nM. Take `O=C1C(c2ccc(O)cc2)N(Cc2ccsc2)C(=O)N1c1ccc(Cl)c(Cl)c1` (stereo not shown) [Example 10, 1-(3,4-dichlorophenyl)-4-(4-hydroxyphenyl)-3-[(thiophen-3-yl)methyl]imidazolidine-2,5-dione]: the EC50 came to 16.4 nM. In addition, the “KSchild (nM) potency” value under setting [1] stood at 13.69 nM.

Take `CC1(c2ccc(O)cc2)C(=O)N(c2ccc(C#N)c(C(F)(F)F)c2)C(=O)N1S(C)(=O)=O` (stereo not shown) [Example 243.1, 4-[2,5-dioxo-4-(4-hydroxyphenyl)-4-methyl-3-(methylsulphonyl)imidazolidin-1-yl]-2-trifluoromethylbenzonitrile]: the “KSchild (nM) potency” value was determined as 80 nM.

`CC1(c2ccc(O)cc2)C(=O)N(c2ccc(C#N)c(C(F)(F)F)c2)C(=O)N1CCO` (stereo not shown) [Example 239, 4-[2,5-dioxo-3-(2-hydroxyethyl)-4-(4-hydroxyphenyl)-4-methylimidazolidin-1-yl]-2-trifluoromethylbenzonitrile]: the “KSchild (nM) potency” value is reported as 10 nM.

In the case of `C=CCN1C(=O)N(c2ccc(F)c(Cl)c2)C(=O)C1c1ccc(O)cc1` (stereo not shown) [Example 63], the concentration giving a half-maximal response (EC50) was 69.3 nM. In addition, the “KSchild (nM) potency” value under setting [1] turned out to be 69.28 nM. `N#CCN1C(=O)N(c2ccc(C#N)c(C(F)(F)F)c2)C(=O)C1c1ccc(O)cc1` (stereo not shown) [Example 90]: the “KSchild (nM) potency” value is given as 282.84 nM. With `CCOC(=O)CCN1C(=O)N(c2cccc(C(F)(F)F)c2)C(=O)C1c1ccc(O)cc1` (stereo not shown) [Example 80], the half-maximal effective concentration (EC50) stood at 80 nM. Also, under setting [1], the “KSchild (nM) potency” value turned out to be 80 nM. With `CCCN1C(=O)N(c2cccc(C(F)(F)F)c2)C(=O)C1c1ccc(O)cc1` (stereo not shown) [Example 59], the EC50 was determined as 69.3 nM. Under setting [1], the “KSchild (nM) potency” value amounted to 69.28 nM.

With `CN1C(=O)N(c2ccc(C#N)c3c2CCC3)C(=O)C1(C)c1ccc(O)cc1` (stereo not shown) [Example 33, 2,3-dihydro-7-[3,4-dimethyl-2,5-dioxo-4-(4-hydroxyphenyl)imidazolidin-1-yl]-4(1H)-indenenitrile], the “KSchild (nM) potency” value is on record as 0.78 nM.

Take `COc1ccc2c(c1)CCC21C(=O)N(c2ccc(C#N)c(C(F)(F)F)c2)C(=O)N1C` (stereo not shown) [Example 165, 4-[2′,3′-dihydro-2,5-dioxo-5′-methoxy-3-methylspiro(imidazolidin-4,1′(1H)inden)-1-yl]-2-trifluoromethylbenzonitrile]: the “KSchild (nM) potency” value is 60 nM. Turning to `O=C1C(c2ccc(O)cc2)N(Cc2ccc3c(c2)OCO3)C(=O)N1c1ccc(F)c(F)c1` (stereo not shown) [Example 100], the EC50 was 77.5 nM. Besides, the “KSchild (nM) potency” value under setting [1] was found to be 77.46 nM. Turning to `N#CCN1C(=O)N(c2ccc(Cl)c(Cl)c2)C(=O)C1c1ccc(O)cc1` (stereo not shown) [Example 91], the 50% effective concentration (EC50) was found to be 94.9 nM. Further, the “KSchild (nM) potency” value under setting [1] worked out at 94.87 nM. For `CCOCCCN1C(=O)N(c2ccc(F)c(F)c2)C(=O)C1c1ccc(O)cc1` (stereo not shown) [Example 85], in that order: 300 nM and 300 nM. Take `CC1(c2ccc(O)cc2)C(=O)N(c2ccc(C#N)c(C(F)(F)F)c2)C(=O)N1CS(C)(=O)=O` (stereo not shown) [Example 222.3, 4-[2,5-dioxo-4-(4-hydroxyphenyl)-4-methyl-3-[(methylsulphonyl)methyl]imidazolidin-1-yl]-2-trifluoromethylbenzonitrile]: the “KSchild (nM) potency” value under setting [1] was 200 nM. As for `O=C1C(c2ccc(O)cc2)N(CCO)C(=O)N1c1ccc(Cl)c(C(F)(F)F)c1` (stereo not shown) [Example 141], the “KSchild (nM) potency” value turned out to be 17.32 nM.

Consider `O=C1C(c2ccc(O)cc2)N(CCCCO)C(=O)N1c1ccc([N+](=O)[O-])c(C(F)(F)F)c1` (stereo not shown) [Example 131], for which the “KSchild (nM) potency” value stood at 600 nM. As to `CN(C)CCN1C(=O)N(c2ccc(C#N)c(C(F)(F)F)c2)C(=O)C1c1ccc(O)cc1` (stereo not shown) [Example 113], the “KSchild (nM) potency” value is recorded as 109.54 nM. For `CCC1(c2ccc(O)cc2)C(=O)N(c2ccc(C#N)c(C(F)(F)F)c2)C(=O)N1C` (stereo not shown) [Example 183, 4-[2,5-dioxo-4-ethyl-4-(4-hydroxyphenyl)-3-methylimidazolidin-1-yl]-2-trifluoromethylbenzonitrile], the “KSchild (nM) potency” value under setting [1] turned out to be 2 nM. Consider `N#CCN1C(=O)N(c2ccc(F)c(F)c2)C(=O)C1c1ccc(O)cc1` (stereo not shown) [Example 92], for which the EC50 came out at 1500 nM. Besides, the “KSchild (nM) potency” value under setting [1] is reported as 1500 nM. In the case of `Cc1cc(O)ccc1C1(C)C(=O)N(c2ccc(C#N)c(C(F)(F)F)c2)C(=O)N1C` (stereo not shown) [Example 180, 4-[3,4-dimethyl-2,5-dioxo-4-(4-hydroxy-2-methylphenyl)imidazolidin-1-yl]-2-trifluoromethylbenzonitrile], the “KSchild (nM) potency” value turned out to be 8 nM. In the case of `C=CCN1C(=O)N(c2ccc(C#N)c(C(F)(F)F)c2)C(=O)C1(C)c1ccc(O)cc1` (stereo not shown) [Example 23, 4-[2,5-dioxo-4-(4-hydroxyphenyl)-4-methyl-3-(2-propenyl)imidazolidin-1-yl]-2-trifluoromethylbenzonitrile], the “KSchild (nM) potency” value under setting [1] was 2 nM. As for `CCCC1(c2ccc(OC)cc2)C(=O)N(c2ccc(C#N)c(C(F)(F)F)c2)C(=O)N1C` (stereo not shown) [Example 166.1, 4-[2,5-dioxo-4-(4-methoxyphenyl)-3-methyl-4-propylimidazolidin-1-yl]-2-trifluoromethylbenzonitrile], the “KSchild (nM) potency” value came to 400 nM. For `CC1(c2ccc(O)cc2)C(=O)N(c2ccc(C#N)c(C(F)(F)F)c2)C(=O)N1C1CCCC1` (stereo not shown) [Example 24.2, 4-[3-cyclopentyl-2,5-dioxo-4-(4-hydroxyphenyl)-4-methylimidazolidin-1-yl]-2-trifluoromethylbenzonitrile], under setting [1], the “KSchild (nM) potency” value worked out at 20 nM.

Consider `CCOCCCN1C(=O)N(c2ccc(Cl)c(C(F)(F)F)c2)C(=O)C1c1ccc(O)cc1` (stereo not shown) [Example 86], for which the EC50 stood at 49 nM. In addition, under setting [1], the “KSchild (nM) potency” value was 48.99 nM. For the molecule `C#CCN1C(=O)N(c2ccc([N+](=O)[O-])cc2)C(=O)C1c1ccc(O)cc1` (stereo not shown) [Example 73], the “KSchild (nM) potency” value was found to be 13.77 nM. Still for that read-out and setting: the value for `N#CCCN1C(=O)N(c2ccc(C#N)c(C(F)(F)F)c2)C(=O)C1c1ccc(O)cc1` (stereo not shown) [Example 121] was 17.32 nM.

As for `CN1C(=O)N(c2ccc(Cl)c(Cl)c2)C(=O)C1(CO)c1ccc(O)cc1` (stereo not shown) [Example 190, 1-(3,4-dichlorophenyl)-4-hydroxymethyl-4-(4-hydroxyphenyl)-3-methylimidazolidine-2,5-dione], under setting [1], the “KSchild (nM) potency” value was determined as 0.37 nM. Regarding `CN1C(=O)N(c2ccc(C#N)c3c2CCCC3)C(=O)C1(C)c1ccc(O)cc1` (stereo not shown) [Example 34, 8-[3,4-dimethyl-2,5-dioxo-4-(4-hydroxyphenyl)imidazolidin-1-yl]-1,2,3,4-tetrahydro-5-naphthonitrile], the “KSchild (nM) potency” value is 3.3 nM. `O=C1C(c2ccc(O)cc2)N(CCO)C(=O)N1c1ccc(Cl)c(Cl)c1` (stereo not shown) [Example 139]: the half-maximal effective concentration (EC50) is 44.7 nM. The “KSchild (nM) potency” value under setting [1] turned out to be 28.28 nM. In the case of `C#CCN1C(=O)N(c2ccc(C#N)c(C(F)(F)F)c2)C(=O)[C@@]1(C)c1ccc(O)cc1` [Example 156.1, (R)-4-[2,5-dioxo-4-(4-hydroxyphenyl)-4-methyl-3-(2-propynyl)imidazolidin-1-yl]-2-trifluoromethylbenzonitrile], the “KSchild (nM) potency” value was 6 nM. Consider `CN1C(=O)N(c2ccc(C#N)c(C(F)(F)F)c2)C(=O)[C@]1(CF)c1ccc(O)cc1` [Example 177.1, (S)-4-[4-fluoromethyl-4-(4-hydroxyphenyl)-3-methyl-2,5-dioxoimidazolidin-1-yl]-2-trifluoromethylbenzonitrile], for which the “KSchild (nM) potency” value was 310 nM.

With `N#CCCN1C(=O)N(c2cccc(C(F)(F)F)c2)C(=O)C1c1ccc(O)cc1` (stereo not shown) [Example 128], the EC50 was 245 nM. In addition, the “KSchild (nM) potency” value under setting [1] is on record as 244.95 nM.

Consider `CCOCCCN1C(=O)N(c2cccc(C(F)(F)F)c2)C(=O)C1c1ccc(O)cc1` (stereo not shown) [Example 89], for which the EC50 came to 200 nM. In addition, the “KSchild (nM) potency” value under setting [1] is given as 200 nM.

What is called EC50 is the concentration needed to bring the measured effect to its halfway point.
